Patent publication US9493478B2, “Fused ring compound containing furan or salt thereof and pharmaceutical composition comprising same” (YUHAN CORPORATION, priority 2012, dated 2016)

Experiments:
Format in all cases: biochemical
PI3K β (p110β/p85α)(h) = PI3K β (p110β/p85α)(h) (Homo sapiens, UniProt P42338); test: Assay for phosphatidylinositol 3-kinase beta (PI3Kβ) activity, PI3K-HTRF kit; settings: TR-FRET; enzyme 0.725 μg/ml, 10 μM PIP2, 10 μM ATP
Description: [The source words this procedure for another target and says it was used here with some conditions changed.] (§1) The compounds of the present invention were assayed for the activity of phosphatidylinositol 3-kinase gamma (PI3Kγ) by using a PI3K enzyme-homogenous time resolved fluorescence (PI3K-HTRF) kit, which is available from Upstate (Millipore Co, Billerica, Mass., USA).
(§2) Three kinds of buffer solutions including a phosphorylation reaction solution (a reaction buffer containing 40 mM MgCl2 which is available from Upstate was diluted 4 times and added with 5 mM DTT), a stop solution (STOP A and B solutions which are available from Upstate were mixed at a ratio of 3:1) and a fluorescence detection solution (Detection solutions A, B and C which are available from Upstate were mixed at a ratio of 1:1:18) were prepared. 1 mM of PIP2 substrate (phosphatidylinositol 4,5 biphosphate; Upstate), PI3Kγ (#14-558; Upstate) enzyme and 10 mM ATP (Sigma Aldrich Co., St. Louis, Mo., USA) were prepared. Each of PI3Kγ, 1 mM PIP2 and 10 mM ATP was diluted to 2.9 μg/ml (final reaction concentration: 1.45 μg/ml), 20 μM (final reaction concentration: 10 μM) and 40 μM (final reaction concentration: 10 μM), respectively. The buffer solution used for dilution and preparation process was the phosphorylation reaction solution. The stop solution was used for the termination of phosphorylation reaction, and the fluorescence detection solution was used for the detection of time-resolved fluorescence signals.
(§3) Each test sample was transferred to a 384 well low flange white flat bottom microplate (#3572, Corning Life Sciences, Lowell, Mass., USA) by using a multi 8-channel (Pipetman Neo multi 8×20, Gilson, Middleton, Wis., USA) to make a final phosphorylation reaction volume of 20 μl per each well. For the negative control, 5 μl of 14.4% DMSO and 10 μl of PIP2 substration solution were used, and 5 μl of 14.4% DMSO and 10 μl of PIP2/PI3Kγ mixed solution were used as the positive control. For the test group, 5 μl of a solution prepared by dissolving the compound obtained in Example in DMSO and 10 μl of PIP2/PI3Kγ mixed solution were used. Before the initiation of the phosphorylation reaction, sample compounds were pretreated with the enzyme for approximately 10 minutes, and then the phosphorylation reaction was induced by adding 5 μl of ATP. Since each of the test compound and ATP takes up 25% of the total volume, and PIP2 and PI3Kγ take up 50% of the total volume during the reaction, each solution was concentrated 4 and 2 times, respectively, before mixing the solutions. Subsequently, the test sample was gently shook for 3 minutes and subjected to a phosphorylation reaction for 90 minutes at room temperature, which was then added with 5 μl of the stop solution to terminate the phosphorylation reaction. In order to induce a time-resolved fluorescence reaction, 5 μl of the fluorescence detection solution was added to the sample. The fluorescence detection solution contains biotin-phosphatidylinositol 3,4,5-triphosphate (PIP3), streptavidin-labeled Allopycocyanin (APC) and europium-labeled Pleckstrin homology domain (the PIP3 binds to PH domain), and the time-resolved fluorescence reaction is induced by a series of reaction of PH domain and PIP3, and biotin and streptavidin. The sample was left to stand for 6 hours at room temperature, and the time-resolved fluorescence resonance energy transfer (TR-FRET) rate was measured (emission wavelength: 665 nm, 620 nm, excitation wavelength: 340 nm) by using a Flexstation3 Micro plate reader (Molecular Devices, USA). TR-FRET Rate and TR-Inhibition Rate were calculated based on Equations 1 and 2 below, and the results are expressed in IC50, which is the concentration of a compound that inhibits 50% of PI3Kγ activity in vitro. TR-FRET Rate=(665 nm emission wavelength/620 nm emission wavelength)×10000 <Equation 1> TR-FRET Inhibition Rate=[(TR-FRET Rate of Sample−TR-FRET Rate of Negative Control)/(TR-FRET Rate of Positive Control−TR-FRET Rate of Negative Control)]×100 <Equation 2> […]

PI3Kγ (p120γ)(h) = PI3Kγ (p120γ)(h) (Homo sapiens, UniProt P48736); test: Assay for phosphatidylinositol 3-kinase gamma (PI3Kγ) activity, PI3K-HTRF kit; settings: TR-FRET; enzyme 1.45 μg/ml, 10 μM PIP2, 10 μM ATP
PI3Kγ (p120γ)(h), sequence (P48736 whole entry): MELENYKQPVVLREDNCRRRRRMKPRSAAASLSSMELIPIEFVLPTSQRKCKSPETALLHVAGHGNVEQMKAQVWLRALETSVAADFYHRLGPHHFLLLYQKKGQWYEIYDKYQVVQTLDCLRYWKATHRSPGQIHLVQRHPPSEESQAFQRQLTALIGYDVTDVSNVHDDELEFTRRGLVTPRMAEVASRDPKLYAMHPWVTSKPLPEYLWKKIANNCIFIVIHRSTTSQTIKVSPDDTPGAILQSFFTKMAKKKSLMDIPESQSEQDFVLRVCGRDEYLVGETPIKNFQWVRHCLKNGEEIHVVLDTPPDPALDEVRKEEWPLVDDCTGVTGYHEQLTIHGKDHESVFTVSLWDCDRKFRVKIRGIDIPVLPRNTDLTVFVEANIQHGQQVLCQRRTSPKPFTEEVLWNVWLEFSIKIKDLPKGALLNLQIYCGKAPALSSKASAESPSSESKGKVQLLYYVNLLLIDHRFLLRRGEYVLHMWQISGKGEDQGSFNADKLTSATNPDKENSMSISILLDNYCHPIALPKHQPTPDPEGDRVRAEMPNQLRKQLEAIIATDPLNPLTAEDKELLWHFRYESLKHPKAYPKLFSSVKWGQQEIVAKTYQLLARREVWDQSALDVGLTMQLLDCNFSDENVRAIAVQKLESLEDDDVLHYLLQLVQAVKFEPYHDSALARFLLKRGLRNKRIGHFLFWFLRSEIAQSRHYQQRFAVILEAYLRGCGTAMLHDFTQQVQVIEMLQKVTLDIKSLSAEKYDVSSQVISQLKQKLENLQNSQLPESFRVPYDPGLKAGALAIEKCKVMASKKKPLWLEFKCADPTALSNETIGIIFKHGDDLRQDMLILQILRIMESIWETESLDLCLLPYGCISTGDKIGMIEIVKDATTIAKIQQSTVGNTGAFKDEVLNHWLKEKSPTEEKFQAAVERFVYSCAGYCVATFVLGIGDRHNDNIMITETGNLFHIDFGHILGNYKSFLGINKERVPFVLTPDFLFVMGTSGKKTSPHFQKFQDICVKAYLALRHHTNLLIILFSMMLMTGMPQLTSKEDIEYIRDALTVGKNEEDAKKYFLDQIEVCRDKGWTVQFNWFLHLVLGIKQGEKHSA
Description: as §1, §2
(§4) Each test sample was transferred to a 384 well low flange white flat bottom microplate (#3572, Corning Life Sciences, Lowell, Mass., USA) by using a multi 8-channel (Pipetman Neo multi 8×20, Gilson, Middleton, Wis., USA) to make a final phosphorylation reaction volume of 20 μl per each well. For the negative control, 5 μl of 14.4% DMSO and 10 μl of PIP2 substration solution were used, and 5 μl of 14.4% DMSO and 10 μl of PIP2/PI3Kγ mixed solution were used as the positive control. For the test group, 5 μl of a solution prepared by dissolving the compound obtained in Example in DMSO and 10 μl of PIP2/PI3Kγ mixed solution were used. Before the initiation of the phosphorylation reaction, sample compounds were pretreated with the enzyme for approximately 10 minutes, and then the phosphorylation reaction was induced by adding 5 μl of ATP. Since each of the test compound and ATP takes up 25% of the total volume, and PIP2 and PI3Kγ take up 50% of the total volume during the reaction, each solution was concentrated 4 and 2 times, respectively, before mixing the solutions. Subsequently, the test sample was gently shook for 3 minutes and subjected to a phosphorylation reaction for 90 minutes at room temperature, which was then added with 5 μl of the stop solution to terminate the phosphorylation reaction. In order to induce a time-resolved fluorescence reaction, 5 μl of the fluorescence detection solution was added to the sample. The fluorescence detection solution contains biotin-phosphatidylinositol 3,4,5-triphosphate (PIP3), streptavidin-labeled Allopycocyanin (APC) and europium-labeled Pleckstrin homology domain (the PIP3 binds to PH domain), and the time-resolved fluorescence reaction is induced by a series of reaction of PH domain and PIP3, and biotin and streptavidin. The sample was left to stand for 6 hours at room temperature, and the time-resolved fluorescence resonance energy transfer (TR-FRET) rate was measured (emission wavelength: 665 nm, 620 nm, excitation wavelength: 340 nm) by using a Flexstation3 Micro plate reader (Molecular Devices, USA). TR-FRET Rate and TR-Inhibition Rate were calculated based on Equations 1 and 2 below, and the results are expressed in IC50, which is the concentration of a compound that inhibits 50% of PI3Kγ activity in vitro. TR-FRET Rate=(665 nm emission wavelength/620 nm emission wavelength)×10000 <Equation 1> TR-FRET Inhibition Rate=[(TR-FRET Rate of Sample−TR-FRET Rate of Negative Control)/(TR-FRET Rate of Positive Control−TR-FRET Rate of Negative Control)]×100 <Equation 2>

PI3Kα (p110α/p85α)(h) = PI3Kα (p110α/p85α)(h) (Homo sapiens, UniProt P42336); test: Assay for phosphatidylinositol 3-kinase alpha (PI3Kα) activity, PI3K-HTRF kit; settings: TR-FRET; enzyme 0.3625 μg/ml, 10 μM PIP2, 10 μM ATP
PI3Kα (p110α/p85α)(h), sequence (P42336 whole entry): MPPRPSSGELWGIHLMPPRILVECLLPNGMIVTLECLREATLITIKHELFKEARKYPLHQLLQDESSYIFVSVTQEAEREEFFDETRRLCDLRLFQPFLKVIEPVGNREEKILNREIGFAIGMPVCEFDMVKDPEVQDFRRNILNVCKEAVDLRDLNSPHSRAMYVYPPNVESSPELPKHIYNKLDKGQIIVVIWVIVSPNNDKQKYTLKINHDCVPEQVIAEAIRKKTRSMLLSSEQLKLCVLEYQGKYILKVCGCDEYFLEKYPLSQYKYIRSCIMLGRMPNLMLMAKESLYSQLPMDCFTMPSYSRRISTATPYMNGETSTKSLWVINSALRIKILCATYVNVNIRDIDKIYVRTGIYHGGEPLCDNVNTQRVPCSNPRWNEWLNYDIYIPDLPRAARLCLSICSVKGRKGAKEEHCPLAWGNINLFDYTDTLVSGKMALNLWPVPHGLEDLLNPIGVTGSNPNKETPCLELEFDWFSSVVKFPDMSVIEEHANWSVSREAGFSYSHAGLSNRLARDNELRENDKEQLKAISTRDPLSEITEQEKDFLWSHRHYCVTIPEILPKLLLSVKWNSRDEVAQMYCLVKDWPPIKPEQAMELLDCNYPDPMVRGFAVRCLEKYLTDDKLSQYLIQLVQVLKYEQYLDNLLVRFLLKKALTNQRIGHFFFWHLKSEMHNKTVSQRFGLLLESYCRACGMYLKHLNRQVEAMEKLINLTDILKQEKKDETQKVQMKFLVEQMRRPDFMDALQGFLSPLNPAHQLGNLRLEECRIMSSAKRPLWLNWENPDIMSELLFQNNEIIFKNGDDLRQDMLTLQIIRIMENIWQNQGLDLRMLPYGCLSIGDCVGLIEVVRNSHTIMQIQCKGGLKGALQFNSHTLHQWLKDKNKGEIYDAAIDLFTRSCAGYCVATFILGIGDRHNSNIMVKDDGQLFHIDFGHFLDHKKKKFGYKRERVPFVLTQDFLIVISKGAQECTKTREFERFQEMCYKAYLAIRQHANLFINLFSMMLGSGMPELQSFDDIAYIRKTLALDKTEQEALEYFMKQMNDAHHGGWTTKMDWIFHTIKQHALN
PI3Kα (p110α/p85α)(h), sequence (P27986 whole entry partner): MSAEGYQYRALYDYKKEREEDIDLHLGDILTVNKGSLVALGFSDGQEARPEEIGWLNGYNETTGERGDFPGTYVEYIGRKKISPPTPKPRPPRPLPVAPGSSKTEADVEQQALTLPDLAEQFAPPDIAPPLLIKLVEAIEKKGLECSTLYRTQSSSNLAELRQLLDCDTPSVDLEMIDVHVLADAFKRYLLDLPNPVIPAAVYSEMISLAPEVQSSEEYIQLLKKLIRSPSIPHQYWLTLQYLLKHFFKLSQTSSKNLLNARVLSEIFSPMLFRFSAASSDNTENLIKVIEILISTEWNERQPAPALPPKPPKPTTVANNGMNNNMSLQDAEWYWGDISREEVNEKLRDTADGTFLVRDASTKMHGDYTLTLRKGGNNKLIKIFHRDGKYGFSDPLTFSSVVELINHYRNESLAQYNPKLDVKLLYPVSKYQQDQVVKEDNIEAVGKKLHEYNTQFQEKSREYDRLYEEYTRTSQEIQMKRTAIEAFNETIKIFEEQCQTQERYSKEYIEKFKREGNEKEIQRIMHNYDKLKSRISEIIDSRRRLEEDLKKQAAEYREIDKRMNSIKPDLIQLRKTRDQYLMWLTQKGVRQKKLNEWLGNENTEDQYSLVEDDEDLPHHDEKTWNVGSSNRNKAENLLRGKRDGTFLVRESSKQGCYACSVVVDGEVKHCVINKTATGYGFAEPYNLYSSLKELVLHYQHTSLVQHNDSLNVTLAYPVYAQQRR
Description: [The source words this procedure for another target and says it was used here with some conditions changed.] as §1, §2, §4

PI3Kδ (p110δ/p85α)(h) = PI3Kδ (p110δ/p85α)(h) (Homo sapiens, UniProt O00329); test: Assay for phosphatidylinositol 3-kinase delta (PI3Kδ) activity, PI3K-HTRF kit; settings: TR-FRET; enzyme 0.725 μg/ml, 10 μM PIP2, 10 μM ATP
PI3Kδ (p110δ/p85α)(h), sequence (O00329 whole entry): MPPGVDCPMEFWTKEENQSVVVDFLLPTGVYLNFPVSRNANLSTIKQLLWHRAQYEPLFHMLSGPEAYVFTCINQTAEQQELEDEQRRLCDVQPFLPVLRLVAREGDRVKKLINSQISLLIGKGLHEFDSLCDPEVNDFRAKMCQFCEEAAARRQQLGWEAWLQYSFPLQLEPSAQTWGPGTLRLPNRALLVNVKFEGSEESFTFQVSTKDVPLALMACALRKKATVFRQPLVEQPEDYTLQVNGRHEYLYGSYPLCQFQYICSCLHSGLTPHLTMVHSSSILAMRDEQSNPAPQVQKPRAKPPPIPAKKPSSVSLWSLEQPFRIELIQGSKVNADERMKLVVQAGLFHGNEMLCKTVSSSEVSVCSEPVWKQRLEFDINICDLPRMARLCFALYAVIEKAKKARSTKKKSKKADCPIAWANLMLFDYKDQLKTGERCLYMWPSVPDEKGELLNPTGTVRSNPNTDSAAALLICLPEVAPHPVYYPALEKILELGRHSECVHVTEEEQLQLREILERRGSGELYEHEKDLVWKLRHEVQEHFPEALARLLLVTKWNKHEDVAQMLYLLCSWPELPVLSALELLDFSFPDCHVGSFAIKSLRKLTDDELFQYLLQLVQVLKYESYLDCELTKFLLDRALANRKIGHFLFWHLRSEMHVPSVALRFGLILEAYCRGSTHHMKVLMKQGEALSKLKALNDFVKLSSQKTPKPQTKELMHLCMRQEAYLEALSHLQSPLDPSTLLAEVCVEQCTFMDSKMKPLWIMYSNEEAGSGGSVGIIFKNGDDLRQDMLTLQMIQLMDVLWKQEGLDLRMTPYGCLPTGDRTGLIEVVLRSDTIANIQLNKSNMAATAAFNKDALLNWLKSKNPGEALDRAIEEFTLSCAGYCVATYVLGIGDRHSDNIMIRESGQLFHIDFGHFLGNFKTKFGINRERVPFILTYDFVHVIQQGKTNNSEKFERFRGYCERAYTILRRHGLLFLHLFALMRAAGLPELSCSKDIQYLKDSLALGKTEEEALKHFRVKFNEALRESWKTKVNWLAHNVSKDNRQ
PI3Kδ (p110δ/p85α)(h), sequence (P27986 whole entry partner): as the sequence (P27986 whole entry partner) above
Description: [The source words this procedure for another target and says it was used here with some conditions changed.] as §1, §2, §3

PI3K β (p110β/p85α)(h), sequence (P42338 whole entry): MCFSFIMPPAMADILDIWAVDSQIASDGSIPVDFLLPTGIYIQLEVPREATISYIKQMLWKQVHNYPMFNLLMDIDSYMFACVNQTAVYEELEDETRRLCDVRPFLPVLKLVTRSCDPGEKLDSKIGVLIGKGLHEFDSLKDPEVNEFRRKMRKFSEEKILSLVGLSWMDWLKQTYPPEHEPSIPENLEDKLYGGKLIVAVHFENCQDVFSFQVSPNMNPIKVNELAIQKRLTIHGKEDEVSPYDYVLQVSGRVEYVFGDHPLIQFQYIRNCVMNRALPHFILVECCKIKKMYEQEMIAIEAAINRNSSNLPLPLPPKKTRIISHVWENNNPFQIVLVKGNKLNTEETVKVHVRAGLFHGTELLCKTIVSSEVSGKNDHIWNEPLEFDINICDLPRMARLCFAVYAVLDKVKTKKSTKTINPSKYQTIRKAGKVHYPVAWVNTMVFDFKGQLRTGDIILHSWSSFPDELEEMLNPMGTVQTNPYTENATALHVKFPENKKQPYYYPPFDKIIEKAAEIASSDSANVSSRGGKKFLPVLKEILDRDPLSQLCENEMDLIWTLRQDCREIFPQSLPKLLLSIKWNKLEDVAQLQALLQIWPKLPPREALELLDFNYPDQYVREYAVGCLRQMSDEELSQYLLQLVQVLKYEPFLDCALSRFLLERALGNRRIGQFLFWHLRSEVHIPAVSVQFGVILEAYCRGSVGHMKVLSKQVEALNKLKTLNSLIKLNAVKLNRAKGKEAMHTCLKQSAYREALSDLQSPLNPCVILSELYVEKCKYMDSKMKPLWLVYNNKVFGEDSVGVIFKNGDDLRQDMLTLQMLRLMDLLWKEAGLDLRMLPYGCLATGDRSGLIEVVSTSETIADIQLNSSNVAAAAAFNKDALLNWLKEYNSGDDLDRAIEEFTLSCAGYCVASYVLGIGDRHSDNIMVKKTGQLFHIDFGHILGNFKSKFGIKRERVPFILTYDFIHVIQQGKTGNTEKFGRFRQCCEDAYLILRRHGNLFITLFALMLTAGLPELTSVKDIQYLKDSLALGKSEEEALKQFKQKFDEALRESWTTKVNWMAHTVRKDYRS
PI3K β (p110β/p85α)(h), sequence (P27986 whole entry partner): as the sequence (P27986 whole entry partner) above

IC50 (PI3K β (p110β/p85α)(h)) [nM] | IC50 (PI3Kγ (p120γ)(h)) [nM] | IC50 (PI3Kα (p110α/p85α)(h)) [nM] | IC50 (PI3Kδ (p110δ/p85α)(h)) [nM] | Compound
3570 | 5 | 3 | 6250 | COc1ccc(-c2cncc3cc(/C=C4\SC(=O)NC4=O)oc23)cc1C(F)(F)F [Example 90, (Z)-5-([7-{4-Methoxy-3-(trifluoromethyl)phenyl}furo[3,2-c]pyridin-2-yl]methylene)thiazolidine-2,4-dione]
> 10000 | 8 | 6 | > 10000 | CCOc1ccc(-c2cncc3cc(/C=C4\SC(=O)NC4=O)oc23)cc1C(F)(F)F [Example 94, (Z)-5-([7-{4-Ethoxy-3-(trifluoromethyl)phenyl}furo[3,2-c]pyridin-2-yl]methylene)thiazolidine-2,4-dione]
> 10000 | 12 | 58 | > 10000 | O=C1NC(=O)/C(=C/c2cc3cncc(C#Cc4ccccc4)c3o2)S1 [Example 125, (Z)-5-[{7-(Phenylethynyl)furo[3,2-c]pyridin-2-yl}methylene]thiazolidine-2,4-dione]
337 | 95 | 22 | 98 | O=C1NC(=O)/C(=C/c2cc3cncc(-c4cccc(CN5CCCCC5)c4)c3o2)S1 [Example 132, (Z)-5-([7-{3-(Piperidin-1-ylmethyl)phenyl}furo[3,2-c]pyridin-2-yl]methylene)thiazolidine-2,4-dione]
> 1000 | 344 | 95 | 54 | CN1CCN(Cc2ccc(-c3cncc4cc(/C=C5\SC(=O)NC5=O)oc34)cc2)CC1 [Example 134, (Z)-5-{(7-[4-{(4-Methylpiperazin-1-yl)methyl}phenyl]furo[3,2-c]pyridin-2-yl)methylene}thiazolidine-2,4-dione]
23 | 108 | 21 | 51 | O=C1NC(=O)/C(=C/c2cc3cncc(-c4cccc(NS(=O)(=O)c5ccccc5)c4)c3o2)S1 [Example 141, (Z)—N-(3-[2-{(2,4-Dioxothiazolidin-5-ylidene)methyl}furo[3,2-c]pyridin-7-yl]phenyl)benzenesulfonamide]
115 | 16 | 10 | 246 | O=C1NC(=S)S/C1=C\c1cc2cncc(-c3ccc(F)nc3)c2o1 [Example 153, (Z)-5-[{7-(6-Fluoropyridin-3-yl)furo[3,2-c]pyridin-2-yl}methylene]-2-thioxothiazolidin-4-one]
> 10000 | 17 | 13 | 191 | COc1ccc(-c2cncc3cc(/C=C4\SC(=S)NC4=O)oc23)cc1F [Example 161, (Z)-5-[{7-(3-Fluoro-4-methoxyphenyl)furo[3,2-c]pyridin-2-yl}methylene]-2-thioxothiazolidin-4-one]
> 10000 | 10 | 5 | > 10000 | O=C1NC(=S)S/C1=C\c1cc2cncc(-c3ccc4c(c3)CCO4)c2o1 [Example 187, (Z)-5-[{7-(2,3-Dihydrobenzofuran-5-yl)furo[3,2-c]pyridin-2-yl}methylene]-2-thioxothiazolidin-4-one]
156 | 3 | 2 | 1900 | Cc1cc(-c2cncc3cc(/C=C4\SC(=S)NC4=O)oc23)cnc1F [Example 195, (Z)-5-[7-(6-Fluoro-5-methylpyridin-3-yl)-furo[3,2-c]pyridin-2-ylmethylene]-2-thioxothiazolidin-4-one]
> 10000 | 7 | 10 | > 10000 | COc1c(C)cc(-c2cncc3cc(/C=C4\SC(=S)NC4=O)oc23)cc1C [Example 196, (Z)-5-[7-(4-Methoxy-3,5-dimethylphenyl)furo[3,2-c]pyridin-2-ylmethylene]-2-thioxothiazolidin-4-one]
> 10000 | 5 | 121 | > 10000 | Cc1cc(-c2cncc3cc(/C=C4\SC(=S)NC4=O)oc23)cc(C)c1OC(C)C [Example 197, (Z)-5-[{7-(4-Isopropoxy-3,5-dimethylphenyl)furo[3,2-c]pyridin-2-yl}methylene]-2-thioxothiazolidin-4-one]
77 | 3 | 1 | 563 | COc1cc(-c2cncc3cc(/C=C4\SC(=S)NC4=O)oc23)cc(Cl)c1O [Example 217, (Z)-5-[{7-(3-Chloro-4-hydroxy-5-methoxyphenyl)furo[3,2-c]pyridin-2-yl}-methylene]-2-thioxothiazolidin-4-one]
> 10000 | 43 | 4 | > 10000 | COc1ncc(-c2cncc3cc(/C=C4\SC(=S)NC4=O)oc23)cc1C [Example 225, (Z)-5-[{7-(6-Methoxy-5-methylpyridin-3-yl)furo[3,2-c]pyridin-2-yl}methylene]-2-thioxothiazolidin-4-one]
> 10000 | 38 | 33 | > 10000 | O=C1NC(=O)/C(=C/c2cc3cncc(-c4ccc(S(=O)(=O)N5CCCCC5)cc4)c3o2)S1 [Example 262, (Z)-5-([7-{4-(Piperidin-1-ylsulfonyl)phenyl}furo[3,2-c]pyridin-2-yl]methylene)thiazolidine-2,4-dione]
